Assay results taken from patent US9345389B2, “Additional systems and methods for providing real-time anatomical guidance in a diagnostic or therapeutic procedure” (EMORY UNIVERSITY, priority 2010, dated 2016).

Columns and labels:
4T1 breast tumors = experiment: In vivo and intra-operative tumor detection with handheld spectroscopic pen device; design: species or system mouse; details: ICG 357 μg/kg i.v.
Description: All in vivo murine studies were performed under an approved protocol by the Emory University IACUC. The mouse mammary carcinoma cell line 4T1, which stably expresses a firefly luciferase gene, was obtained from Dr. Lily Yang at Emory University (Atlanta, Ga.). 4T1 cells were cultured in DMEM containing 10% FBS and 1× antibiotic/antimycotic agent. Prior to injection into mice, the cells were washed two times with PBS and diluted in sterile PBS to a final concentration of 2×10^7 cells/mL. Mammary tumors were inoculated into nude mice by the subcutaneous administration of 2×10^6 4T1 cells into the mouse flank. Once the tumors were approximately 4 mm in diameter, ICG was administered intravenously (i.v.) via a tail vein at a dose of 357 μg/kg. After 24 h, mice were anesthetized by intraperitoneal (i.p.) injection of a 2.5% solution of tribromoethanol (350 mg/kg). Tumor-bearing mice undergoing bioluminescence imaging were administered i.p. 100 μL, of a luciferin solution (30 mg/mL). Bioluminescent images were acquired on a Kodak In-Vivo FX Imaging System from Carestream Molecular Imaging (Rochester, N.Y.). Corresponding bright-field images were taken for anatomical reference of the bioluminescence signal. A series of spectra were acquired on tumor-bearing mice using the handheld spectroscopic pen device. First, the position of the handheld spectroscopic pen device was fixed to about 1-2 cm above the location of the acquisition area on the mouse. Spectra were collected in 1 s and were obtained from several locations, including directly over the center of the tumor and the peritumoral region. After the spectra were acquired, the integrated signal intensity was calculated. The signal intensity was compared to both the bright-field anatomical location and the bioluminescence signal.
In vivo investigations were conducted to test the ability of the handheld spectroscopic pen device to detect intratumoral deposition of ICG after intravenous infusion. This contrast agent has been approved by the U.S. Food and Drug Administration (FDA) and is indicated for various uses in humans, such as for determining cardiac output, hepatic function and liver blood flow, and for ophthalmic angiography. To assess degree of tumor contrast enhancement using ICG, mice were used in which 4T1 tumor cells (2×10^6 in number) were subcutaneously injected 18 days prior to imaging. The tumor cells were genetically engineered to express the firefly luciferase gene; intravenous injection of luciferin after tumor development causes these cells to emit bioluminescent light and allows one to determine the precise location of tumors using bioluminescence imaging. […]

polyps = experiment: Detection of murine GI polyps (Apcmin/+ FAP model) with SpectroPen; format: in vivo, mouse
Description: This example describes the detection of polyps in the murine FAP model, Apcmin/+. This study was conducted in two mice. Two mice were injected with 2 mg/kg ICG. One mouse received ICG intravenously via a tail vein. The other mouse was administered ICG intraperitoneally. After ICG had circulated for 20 h, the mice were euthanized, the lower GI was removed, washed extensively, sectioned roughly into four segments; duodenum, jejunum, ilium, and cecum and colon, and formalin fixed. The mice were then imaged using the integrated imaging and spectroscopy imaging system as provided in this disclosure.
Intestinal segments were rinsed with PBS. […] Next the “SpectroPen” handheld probe was placed 1 cm above the intestinal tissue and clamped into that position for consistent repetitive acquisitions. The 1 cm space between the SpectroPen and the tissue correlates roughly to a 1 mm laser spot size. • 3. Spectra were acquired and recorded from apparently healthy sections of the intestine (considered background signal), and polyps. An integration time of 1 s was utilized. • 4.

[1] = Optical properties of ICG; format: physicochemical; details: 785 nm excitation
Excerpt: The ability of the handheld spectroscopic pen device to differentiate contrast agent signals from the autofluorescence and Raman scattering of major tissue/organ types (i.e. fat, liver and lung) was first examined. […] At 785 nm excitation, ICG has a fluorescence peak at 816 nm, while fat has a background fluorescence peak at 805 nm plus resolvable Raman signals at 862, 1070, 1297, 1439, and 1652 cm^−1 (corresponding to 842, 857, 874, 885, and 902 nm in wavelength, respectively). ICG buried in fat has identifiable contributions of both ICG and fat (e.g., ICG fluorescence at 816 nm and the fat Raman peaks at 874 and 885 nm).

[2] = after intravenous administration, bound to serum proteins; cited from earlier work
[3] = stated as known; cited from earlier work
[4] = Inspection of internal organs and behavior for toxicity in Apcmin/+ mice
Description: This study was conducted in two mice. Two mice were injected with 2 mg/kg ICG. One mouse received ICG intravenously via a tail vein. The other mouse was administered ICG intraperitoneally. After ICG had circulated for 20 h, the mice were euthanized, the lower GI was removed, washed extensively, sectioned roughly into four segments; duodenum, jejunum, ilium, and cecum and colon, and formalin fixed. The mice were then imaged using the integrated imaging and spectroscopy imaging system as provided in this disclosure.
Since these doses were at the maximum recommended dose, the internal organs were briefly inspected for any aberrant signs of toxicity.

CC1(C)C(/C=C/C=C/C=C/C=C2\N(CCCCS(=O)(=O)O)c3ccc4ccccc4c3C2(C)C)=[N+](CCCCS(=O)(=O)[O-])c2ccc3ccccc3c21 [ICG, Indocyanine green]
signal of excised tumors vs surgical cavity (4T1 breast tumors; after surgical removal): 10 fold | integrated signal intensity, tumor areas vs normal regions (4T1 breast tumors; mice with 4T1 tumors, 24 h): ~10 times | signal at adjacent edges (less than 2 mm from the tumor) vs more remote areas (4T1 breast tumors; mice with 4T1 tumors, 24 h): 5-6 times | ICG signal at positive surgical margin vs adjacent tissue (4T1 breast tumors; residual tumor at margin of cavity): 5 times | ICG signal in polyps vs background (polyps; 2 mg/kg ICG intraperitoneally, 20 h, GI tract ex vivo): greater than in the background | ICG signal in polyps vs background tissue (polyps; 2 mg/kg ICG intravenously, 20 h, GI tract ex vivo): higher signal in polyps then in the background tissue | signal in GI tract, i.p. vs i.v. route (polyps; 2 mg/kg ICG, 20 after injection): larger signal in the GI tract compared to mouse injected i.v. | signal from colon polyp compared to background (polyps; Apcmin/+ mouse, colon, 2 mg/kg ICG i.v., 20 h): ≥ 5 fold | fluorescence peak [1]: 816 nm | hydrodynamic size (diameter) after protein binding [2]: 6-8 nm | route of excretion [3]: secreted entirely into bile | appearance of internal organs ([4]; 2 mg/kg ICG intraperitoneally, 20 h, patent attributes to anemia from polyps): pale color was immediately noticed, especially in the liver and kidneys | behavioral changes ([4]; 2 mg/kg ICG via tail vein): no dramatic behavioral changes
